Drawing on patent publication US20250333424A1, “ANTIVIRAL COMPOUNDS” (Gilead Sciences, Inc., priority 2024, published 2025), this text covers EC50 for nine compounds.

This assay deals with monocytic THP1 cells infected with HIV VSV-G pseudotyped GFP-NEF reporter virus. As to the kind of experiment: cells. The format is cell-based. Particulars: Human immunodeficiency virus 1, THP-1, 24 h.

The EC50 is the concentration giving half of the maximal effect. A higher EC50 goes with a need for much substance. Regarding `Cc1cc(/C=C/C#N)cc(C)c1Oc1nc(NC23CC(C#N)(C2)C3)nc2c1C(C)N(Cc1ccnn1C)C2=O` (stereo not drawn) [Example 212, (E)-3-((4-(4-(2-cyanovinyl)-2,6-dimethylphenoxy)-5-methyl-6-((1-methyl-1H-pyrazol-5-yl)methyl)-7-oxo-6,7-dihydro-5H-pyrrolo[3,4-d]pyrimidin-2-yl)amino)bicyclo[1.1.1]pentane-1-carbonitrile], the EC50 was 0.0471 µM.

Compound `Cc1cc(/C=C/C#N)cc(C)c1Oc1nc(NC23CC(C#N)(C2)C3)nc2c1C(C)N(Cc1nccn1C)C2=O` (stereo not drawn) [Example 213, (E)-3-((4-(4-(2-cyanovinyl)-2,6-dimethylphenoxy)-5-methyl-6-((1-methyl-1H-imidazol-2-yl)methyl)-7-oxo-6,7-dihydro-5H-pyrrolo[3,4-d]pyrimidin-2-yl)amino)bicyclo[1.1.1]pentane-1-carbonitrile] had an EC50 of 0.0439 µM.

`Cc1cc(/C=C/C#N)cc(C)c1Oc1nc(NC23CC(C#N)(C2)C3)nc2c1C(C)N(CCN1CCOCC1)C2=O` (stereo not drawn) [Example 214, (E)-3-((4-(4-(2-cyanovinyl)-2,6-dimethylphenoxy)-5-methyl-6-(2-morpholinoethyl)-7-oxo-6,7-dihydro-5H-pyrrolo[3,4-d]pyrimidin-2-yl)amino)bicyclo[1.1.1]pentane-1-carbonitrile] came in with an EC50 of 0.0591 µM.

In turn, `Cc1cc(/C=C/C#N)cc(C)c1Oc1nc(NC23CC(C#N)(C2)C3)nc2c1C(C)N(C1CCOCC1)C2=O` (stereo not drawn) [Example 215, (E)-3-((4-(4-(2-cyanovinyl)-2,6-dimethylphenoxy)-5-methyl-7-oxo-6-(tetrahydro-2H-pyran-4-yl)-6,7-dihydro-5H-pyrrolo[3,4-d]pyrimidin-2-yl)amino)bicyclo[1.1.1]pentane-1-carbonitrile] gave a 50% effective concentration (EC50) of 0.109 µM.

For the compound `Cc1cc(/C=C/C#N)cc(C)c1Oc1nc(NC23CC(C#N)(C2)C3)nc2c1C(C)N(C1CCC1)C2=O` (stereo not drawn) [Example 216, (E)-3-((4-(4-(2-cyanovinyl)-2,6-dimethylphenoxy)-6-cyclobutyl-5-methyl-7-oxo-6,7-dihydro-5H-pyrrolo[3,4-d]pyrimidin-2-yl)amino)bicyclo[1.1.1]pentane-1-carbonitrile], the EC50 was 0.0778 µM.

`Cc1cc(/C=C/C#N)cc(C)c1Oc1nc(NC23CC(C#N)(C2)C3)nc2c1C(C)N(c1cnn(C(F)(F)F)c1)C2=O` (stereo not drawn) [Example 217, (E)-3-((4-(4-(2-cyanovinyl)-2,6-dimethylphenoxy)-5-methyl-7-oxo-6-(1-(trifluoromethyl)-1H-pyrazol-4-yl)-6,7-dihydro-5H-pyrrolo[3,4-d]pyrimidin-2-yl)amino)bicyclo[1.1.1]pentane-1-carbonitrile] displayed an EC50 of 0.157 µM.

`CCn1cc(N2C(=O)c3nc(NC45CC(C#N)(C4)C5)nc(Oc4c(C)cc(/C=C/C#N)cc4C)c3C2C)cn1` (stereo not drawn) [Example 218, (E)-3-((4-(4-(2-cyanovinyl)-2,6-dimethylphenoxy)-6-(1-ethyl-1H-pyrazol-4-yl)-5-methyl-7-oxo-6,7-dihydro-5H-pyrrolo[3,4-d]pyrimidin-2-yl)amino)bicyclo[1.1.1]pentane-1-carbonitrile] came in with an EC50 of 0.0473 µM.

In turn, `COCCn1cc(N2C(=O)c3nc(NC45CC(C#N)(C4)C5)nc(Oc4c(C)cc(/C=C/C#N)cc4C)c3C2C)cn1` (stereo not drawn) [Example 219, (E)-3-((4-(4-(2-cyanovinyl)-2,6-dimethylphenoxy)-6-(1-(2-methoxyethyl)-1H-pyrazol-4-yl)-5-methyl-7-oxo-6,7-dihydro-5H-pyrrolo[3,4-d]pyrimidin-2-yl)amino)bicyclo[1.1.1]pentane-1-carbonitrile] registered an EC50 of 0.0407 µM.

On to `Cc1cc(/C=C/C#N)cc(C)c1Oc1nc(NC23CC(C#N)(C2)C3)nc2c1C(C)N(c1c(C)nn(C)c1C)C2=O` (stereo not drawn) [Example 220, (E)-3-((4-(4-(2-cyanovinyl)-2,6-dimethylphenoxy)-5-methyl-7-oxo-6-(1,3,5-trimethyl-1H-pyrazol-4-yl)-6,7-dihydro-5H-pyrrolo[3,4-d]pyrimidin-2-yl)amino)bicyclo[1.1.1]pentane-1-carbonitrile], for which a half-maximal response (EC50) required 0.155 µM.
